Results: patent publication US6362165B1, “Hydroxyphenyl derivatives with HIV integrase inhibitory properties” (Pharmacor Inc., priority 1999, dated 2002)
pIC50: −log10 of the molar value.

Molecular target: T1, HIV-1 integrase (Human immunodeficiency virus type 1 group M subtype B, UniProt P04585)
Experiment: HIV-1 integrase inhibition assay (procedure of Burke et al.; radiolabeled duplex substrate, U5 end of HIV LTR)
Format: biochemical
Settings: Table 1; 3,4-dihydroxy derivative of the root amino acid, formula Ic; read-out: Anti-integrase activity (IC50) 3,4-dihydroxy derivative
Procedure: For the purposes of Table 1 (and Table 2) the HIV-1 integrase inhibition assay was carried out following a known procedure (Burke, Jr. T. R. et al., J. Med. Chem. 38, 4171-4178 (1995)). A suitable radiolabeled duplex substrate corresponding to the U5 end of the HIV LTR was used.

Point of comparison: O=C(CC[C@H](NC(=O)c1ccc(O)c(O)c1)C(=O)NCCc1ccc(O)c(O)c1)NCCc1ccc(O)c(O)c1 [Example 22, N-[′-(3′,4′-dihydroxybenzoyl)-δ-(3-hydroxytyramine)-L-glutamyl]-dopamine], pIC50 4.96. Against it:
- O=C(NC(Cc1ccc(O)c(F)c1)C(=O)NCCc1ccc(O)c(O)c1)c1ccc(O)c(O)c1 (racemic) [Example 48, N-[N′-(3′,4′-dihydroxybenzoyl)-DL-3-fluorotyrosinyl]-dopamine] — 0.89 log units higher, 5.85
- O=C(NC(Cc1cccc(O)c1)C(=O)NCCc1ccc(O)c(O)c1)c1ccc(O)c(O)c1 (racemic) [Example 50, N-[N′-(3′,4′-dihydroxybenzoyl)-DL-m-tyrosyl]-dopamine] — 0.93 log units higher, 5.89
- O=C(N[C@H](Cc1ccc(O)cc1)C(=O)NCCc1ccc(O)c(O)c1)c1ccc(O)c(O)c1 [Example 10, N-[N′-(3′,4′-dihydroxybenzoyl)-D-tyrosyl]-dopamine] — 0.79 log units lower, 4.17
- O=C(N[C@@H](Cc1ccc(O)cc1)C(=O)NCCc1ccc(O)c(O)c1)c1ccc(O)c(O)c1 [Example 12, N-[N′-(3′,4′-dihydroxybenzoyl)-L-tyrosyl]-dopamine] — within 0.2 log units, 5.10
- O=C(N[C@@H](Cc1ccccc1)C(=O)NCCc1ccc(O)c(O)c1)c1ccc(O)c(O)c1 [Example 14, N-[N′-(3′,4′-dihydroxybenzoyl)-L-phenylalanyl]-dopamine] — 0.61 log units lower, 4.35
- O=C(N[C@@H](Cc1ccc(O)c(O)c1)C(=O)NCCc1ccc(O)c(O)c1)c1ccc(O)c(O)c1 [Example 16, N-[N′-(3′,4′-dihydroxybenzoyl)-L-3,4-dihydroxy-phenylalanyl]-dopamine] — within 0.2 log units, 5.10
- C[C@H](NC(=O)c1ccc(O)c(O)c1)C(=O)NCCc1ccc(O)c(O)c1 [Example 20, N-[N′-(3′, 4′-dihydroxybenzoyl)-L-alanyl]-dopamine] — 0.81 log units lower, 4.15
- O=C(CC[C@H](NC(=O)c1ccc(O)c(O)c1)C(=O)NCCc1ccc(O)c(O)c1)OCc1ccccc1 [Example 23, N-[′-(3′,4′-dihydroxybenzoyl)-δ-benzyloxy-L-glutamyl]-dopamine] — 0.37 log units lower, 4.59
- CC(C)C[C@H](NC(=O)c1ccc(O)c(O)c1)C(=O)NCCc1ccc(O)c(O)c1 [Example 26, N-[N′-(3′,4′-dihydroxybenzoyl)-L-leucyl]-dopamine] — 0.61 log units lower, 4.35
- O=C(NCCc1ccc(O)c(O)c1)[C@@H]1CCCN1C(=O)c1ccc(O)c(O)c1 [Example 28, N-[N′-(3′,4′-dihydroxybenzoyl)-L-prolyl]-dopamine] — 0.86 log units lower, 4.10
- O=C(N[C@@H](Cc1c[nH]c2ccccc12)C(=O)NCCc1ccc(O)c(O)c1)c1ccc(O)c(O)c1 [Example 30, N-[N′-(3′,4′-dihydroxybenzoyl)-L-tryptophyl]-dopamine] — within 0.2 log units, 4.77
- O=C(N[C@@H](Cc1c[nH]cn1)C(=O)NCCc1ccc(O)c(O)c1)c1ccc(O)c(O)c1 [Example 33] — 2.04 log units higher, 7.00
- O=C(CC[C@H](NC(=O)c1ccc(O)c(O)c1)C(=O)OCc1ccccc1)NCCc1ccc(O)c(O)c1 [Example 49, N-(3,4-dihydroxybenzoyl)-δ-N′-(3′,4′-dihydroxyphenethyl)-L-glutamine α-benzyl ester] — 0.70 log units higher, 5.66

Same assay, conditions: Table 1; 4-hydroxy derivative of the root amino acid, formula Ic; read-out: Anti-integrase activity (IC50) 4-hydroxy derivative

Point of comparison: O=C(N[C@@H](Cc1ccc(O)cc1)C(=O)NCCc1ccc(O)c(O)c1)c1ccc(O)cc1 [Example 11, N-[N′-(p-hydroxybenzoyl)-L-tyrosyl]-dopamine], pIC50 4.06. Against it:
- O=C(N[C@@H](Cc1ccccc1)C(=O)NCCc1ccc(O)c(O)c1)c1ccc(O)cc1 [Example 13, N-[N′-(p-hydroxybenzoyl)-L-phenylalanyl]-dopamine] — lower, < 3.70
- C[C@H](NC(=O)c1ccc(O)cc1)C(=O)NCCc1ccc(O)c(O)c1 [Example 19, N-[N′-(p-hydroxybenzoyl)-L-alanyl]-dopamine] — 0.26 log units lower, 3.80
- O=C(CC[C@H](NC(=O)c1ccc(O)cc1)C(=O)NCCc1ccc(O)c(O)c1)NCCc1ccc(O)c(O)c1 [Example 21, N-[′-(p-hydroxybenzoyl)-6-(3-hydroxytyramine)-L-glutamyl]-dopamine] — within 0.2 log units, 4.19
- CC(C)C[C@H](NC(=O)c1ccc(O)cc1)C(=O)NCCc1ccc(O)c(O)c1 [Example 25, N-[N′-(p-hydroxybenzoyl)-L-leucyl]-dopamine] — lower, < 3.70
- O=C(NCCc1ccc(O)c(O)c1)[C@@H]1CCCN1C(=O)c1ccc(O)cc1 [Example 27, N-[N′-(p-hydroxybenzoyl)-L-prolyl]-dopamine] — lower, < 3.70
- N-[N′-(p-hydroxybenzoyl)-L-tryptophanyl]-dopamine [Example 29] — 0.45 log units lower, 3.61

Same assay, conditions: Table 2; dipeptide derivatives of I; read-out: Anti-integrase activity (IC50)

Point of comparison: O=C(C[C@H](NC(=O)[C@H](Cc1ccc(O)cc1)NC(=O)c1ccc(O)c(O)c1)C(=O)NCCc1ccc(O)c(O)c1)OCc1ccccc1 [Example 41, N-[N′-[N″-(3″,4″-dihydroxybenzoyl)-L-tyrosyl]-L-γ-O-benzyl-aspartyl]-dopamine], pIC50 4.70. Against it:
- O=C(N[C@@H](Cc1ccc(O)cc1)C(=O)N[C@@H](Cc1ccc(O)cc1)C(=O)O)c1ccc(O)c(O)c1 [Example 36, N-[N′-(3′,4′-dihydroxybenzoyl)-L-tyrosyl]-L-tyrosine] — 0.95 log units lower, 3.75
- O=C(O)CNC(=O)[C@H](Cc1ccc(O)cc1)NC(=O)c1ccc(O)c(O)c1 [Example 37, N-[N′-(3′,4′-dihydroxybenzoyl)-L-tyrosyl]-glycine] — lower, < 3.70
- O=C(CNC(=O)c1ccc(O)c(O)c1)N[C@@H](Cc1ccc(O)cc1)C(=O)O [Example 39, N-[N′-(3′,4′-dihydroxybenzoyl)-glycyl]-L-tyrosine] — lower, < 3.70
- O=C(N[C@@H](Cc1ccc(O)cc1)C(=O)N[C@@H](Cc1ccc(O)cc1)C(=O)NCCc1ccc(O)c(O)c1)c1ccc(O)c(O)c1 [Example 51] — within 0.2 log units, 4.77

Molecular target: T1, HIV-1 integrase
Experiment: HIV-1 integrase inhibition assay (based on procedure of Hazuda et al.)
Format: biochemical
Settings: Table 3; Nα-caffeoyl derivative of the root amino acid, general formula I; read-out: Anti-integrase activity (IC50) Nα-Caffeoyl derivative
From the text: For the purposes of Table 3 the HIV-1 integrase inhibition assay was based on a known procedure (Hazuda, D. J. et al., Nucleic Acids Res. 22, 1121-1122 (1994)).

Point of comparison: “N-(N′-caffeoyl-L-tryptophanyl)dopamine [Example 53]”, pIC50 5.82. Against it:
- O=C(C=Cc1ccc(O)c(O)c1)NC(CC(=O)NCCc1ccc(O)c(O)c1)C(=O)OCc1ccccc1 [Example 52, Nα-caffeoyl-Nγ-(3-hydroxytyramine)-L-aspartic acid benzyl ester] — within 0.2 log units, 5.66
- O=C(/C=C/c1ccc(O)c(O)c1)N[C@@H](Cc1ccc(O)c(O)c1)C(=O)NCCc1ccc(O)c(O)c1 [Example 54, N-(N′-caffeoyl-L-3,4-dihydroxyphenylalanyl)dopamine] — 0.39 log units higher, 6.21
- O=C(/C=C/c1ccc(O)c(O)c1)N[C@@H](Cc1ccc(O)c(O)c1)C(=O)NCc1ccc(O)c(O)c1 [Example 55, N-(N′-caffeoyl-L-3,4-dihydroxyphenylalanyl)-3,4-dihydroxybenzylamine] — 0.60 log units higher, 6.42
- O=C(/C=C/c1ccc(O)c(O)c1)N[C@@H](CO)C(=O)NCCc1ccc(O)c(O)c1 [Example 59, N-(N′-caffeoyl-L-seryl)dopamine] — 1.03 log units higher, 6.85
- O=C(C=Cc1ccc(O)c(O)c1)NC(CCC(=O)NCCc1ccc(O)c(O)c1)C(=O)NCCc1ccc(O)c(O)c1 [Example 60, N-[N′-caffeoyl-Nα-(3-hydroxytyramine)-L-glutamyl]dopamine] — 1.16 log units higher, 6.98
- O=C(/C=C/c1ccc(O)c(O)c1)N[C@@H](CC(=O)OCc1ccccc1)C(=O)NCCc1ccc(O)c(O)c1 [Example 61, N-(N′-caffeoyl-Oγ-benzyl-L-aspartyl)dopamine] — 0.36 log units lower, 5.46
- O=C(O)C[C@H](NC(=O)/C=C/c1ccc(O)c(O)c1)C(=O)NCCc1ccc(O)c(O)c1 [Example 62, N-(N′-caffeoyl-L-aspartyl)dopamine] — 0.36 log units lower, 5.46
- O=C(/C=C/c1ccc(O)c(O)c1)N[C@@H](Cc1ccc(O)cc1)C(=O)NCc1ccc(O)c(O)c1 [Example 64, N-(N′-caffeoyl-L-tyrosyl)-3,4-dihydroxybenzylamine] — 0.30 log units lower, 5.52

Same assay, conditions: Table 3; other Nα-3,4-dihydroxyphenyl derivative of the root amino acid, general formula I; read-out: Anti-integrase activity (IC50) Other Nα-3,4-dihydroxyphenyl derivative

Point of comparison: O=C(N[C@@H](CS)C(=O)NCCc1ccc(O)c(O)c1)c1ccc(O)c(O)c1 [Example 58, N-[N′-(3′,4′-dihydroxybenzoyl)-L-cysteinyl]dopamine], pIC50 6.68. Against it:
- O=C(N[C@@H](Cc1ccc(O)cc1)C(=O)NCc1ccc(O)c(O)c1)c1ccc(O)c(O)c1 [Example 56, N-[N′-(3′,4′-dihydroxybenzoyl)-L-tyrosyl]-3,4-dihydroxybenzylamine] — 0.57 log units lower, 6.11
- O=C(Cc1ccc(O)c(O)c1)N[C@@H](Cc1ccc(O)c(O)c1)C(=O)NCCc1ccc(O)c(O)c1 [Example 57, N-[N′-(3′,4′-dihydroxyphenylacetyl)-L-3,4-dihydroxyphenylalanyl]dopamine] — 0.29 log units higher, 6.97
- O=C(CC[C@H](NC(=O)c1ccc(O)c(O)c1)C(=O)O)NCCc1ccc(O)c(O)c1 [Example 63, Nα-(3,4-dihydroxybenzoyl)-Nδ-(3-hydroxytyramine) L-glutamic acid] — 1.13 log units lower, 5.55
